From patent publication US7566712B2, “Biaryl piperazinyl-pyridine analogues” (Neurogen Corporation, priority 2003, dated 2009)

Each molecule was assayed against T1, human capsaicin receptor (Homo sapiens, UniProt Q8NER1) (assay: Calcium mobilization assay, determination of antagonist activity (Example 6)). Settings: determined as described in Example 6 (calcium mobilization, antagonist activity); Table II.
T1 construct: pBK-CMV expression construct encoding the full length human capsaicin receptor; expressed in transfected cells
T1 sequence (Q8NER1 whole entry): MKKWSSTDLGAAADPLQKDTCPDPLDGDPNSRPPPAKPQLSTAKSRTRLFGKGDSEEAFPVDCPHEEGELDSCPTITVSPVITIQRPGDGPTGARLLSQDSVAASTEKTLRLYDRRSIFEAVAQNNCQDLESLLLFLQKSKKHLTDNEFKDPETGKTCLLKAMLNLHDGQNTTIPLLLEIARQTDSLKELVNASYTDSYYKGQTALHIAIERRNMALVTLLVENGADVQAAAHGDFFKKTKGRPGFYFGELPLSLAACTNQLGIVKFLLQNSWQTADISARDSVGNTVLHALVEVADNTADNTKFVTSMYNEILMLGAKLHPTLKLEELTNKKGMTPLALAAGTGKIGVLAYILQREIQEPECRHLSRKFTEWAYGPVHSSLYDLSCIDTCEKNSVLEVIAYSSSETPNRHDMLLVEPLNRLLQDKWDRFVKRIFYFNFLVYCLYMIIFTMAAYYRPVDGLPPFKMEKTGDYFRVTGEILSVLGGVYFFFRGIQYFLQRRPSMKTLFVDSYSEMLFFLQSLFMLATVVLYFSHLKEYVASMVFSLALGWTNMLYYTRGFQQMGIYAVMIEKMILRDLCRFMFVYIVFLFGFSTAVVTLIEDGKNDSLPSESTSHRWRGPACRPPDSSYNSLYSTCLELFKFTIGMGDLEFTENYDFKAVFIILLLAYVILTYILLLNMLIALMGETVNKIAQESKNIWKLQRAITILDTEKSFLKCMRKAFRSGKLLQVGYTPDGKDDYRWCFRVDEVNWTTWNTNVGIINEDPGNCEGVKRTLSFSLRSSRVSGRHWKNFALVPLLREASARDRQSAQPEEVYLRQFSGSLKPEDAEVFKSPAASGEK
Type: cell-based
Outline: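 HEK293 clonal lines stably expressing full-length human capsaicin receptor, loaded with Fluo-3 AM in KRH buffer pH 7.4, 1–2 h at 37 °C. Compounds (1–5 μM final) preincubated 0.5–6 h at room temperature, then capsaicin at its EC50 added. FLIPR/Fluoroskan calcium signal; IC50 as 50% decrease of capsaicin response.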

Row | SMILES | IC50 [nM]
1 | Cc1cn(-c2nc(-c3cccc(Cl)c3)cc(N3CCN(c4ncccc4C(F)(F)F)CC3)n2)c(C)n1 [Example 637, 4-(3-chlorophenyl)-2-(2,4-dimethyl-1H-imidazol-1-yl)-6-(4-[3-(trifluoromethyl)pyridin-2-yl]piperazin-1-yl}pyrimidine] | ≤ 1000
2 | Cc1cc(-c2cc(N3CCN(c4ncccc4C(F)(F)F)CC3)nc(Cl)n2)ccc1F [Example 638, 2-chloro-4-(4-fluoro-3-methylphenyl)-6-{4-[3-(trifluoromethyl)pyridin-2-yl]piperazin-1-yl}pyrimidine] | ≤ 1000
3 | CNc1nc(-c2ccc(F)c(Cl)c2)cc(N2CCN(c3ncccc3C(F)(F)F)CC2)n1 [Example 639, 4-(3-chloro-4-fluorophenyl)-N-methyl-6-{4-[3-(trifluoromethyl)pyridin-2-yl]piperazin-1-yl}pyrimidin-2-amine] | ≤ 1000
4 | Cc1cc(-c2cc(N3CCN(c4ncccc4C(F)(F)F)CC3)nc(N(C)C(C)C)n2)ccc1F [Example 640, 4-(4-fluoro-3-methylphenyl)-N-isopropyl-N-methyl-6-{4-[3-(trifluoromethyl)pyridin-2-yl]piperazin-1-yl}pyrimidin-2-amine] | ≤ 1000
5 | Cc1cc(-c2cc(N3CCN(c4ncccc4C(F)(F)F)CC3)nc(N3CCNC(C)C3)n2)ccc1F (stereo not drawn) [Example 641, 4-(4-fluoro-3-methylphenyl)-2-(3-methylpiperazin-1-yl)-6-{4-[3-(trifluoromethyl)pyridin-2-yl]piperazin-1-yl}pyrimidine] | ≤ 1000
6 | Cc1cc(-c2cc(N3CCN(c4ncccc4C(F)(F)F)CC3)nc(N3CCCCC3C)n2)ccc1F (stereo not drawn) [Example 642, 4-(4-fluoro-3-methylphenyl)-2-(2-methylpiperidin-1-yl)-6-{4-[3-(trifluoromethyl)pyridin-2-yl]piperazin-1-yl}pyrimidine] | ≤ 1000
7 | Cc1cc(-c2cc(N3CCN(c4ncccc4C(F)(F)F)CC3)nc(N3CCN(C(=O)OC(C)(C)C)CC3)n2)ccc1F [Example 643, tert-butyl 4-(4-(4-fluoro-3-methylphenyl)-6-{4-[3-(trifluoromethyl)pyridin-2-yl]piperazin-1-yl}pyrimidin-2-yl)piperazine-1-carboxylate] | ≤ 1000
8 | CC(C)N(CCO)c1nc(-c2ccc(F)c(Cl)c2)cc(N2CCN(c3ncccc3C(F)(F)F)CC2)n1 [Example 644, 2-[(4-(3-chloro-4-fluorophenyl)-6-{4-[3-(trifluoromethyl)pyridin-2-yl]piperazin-1-yl}pyrimidin-2-yl)(isopropyl)amino]ethanol] | ≤ 1000
9 | Cc1cc(-c2cc(N3CCN(c4ncccc4C(F)(F)F)CC3)nc(N3CCNCC3)n2)ccc1F [Example 645, 4-(4-fluoro-3-methylphenyl)-2-piperazin-1-yl-6-{4-[3-(trifluoromethyl)pyridin-2-yl]piperazin-1-yl}pyrimidine] | ≤ 1000
10 | Cc1cccnc1N1CCN(c2cc(-c3ccc(F)c(Cl)c3)nc(N3CCOCC3)n2)CC1C (stereo not drawn) [Example 646, 4-{4-(3-chloro-4-fluorophenyi)-6-[3-methyl-4-(3-methylpyridin-2-yl)piperazin-1-yl]pyrimidin-2-yl}morpholine] | ≤ 1000
11 | CCc1nc(C)cn1-c1nc(-c2cccc(Cl)c2)cc(N2CCN(c3ncccc3C(F)(F)F)CC2)n1 [Example 647, 4-(3-chlorophenyl)-2-(2-ethyl-4-methyl-1H-imidazol-1-yl)-6-(4-[3-(trifluoromethyl)pyridin-2-yl]piperazin-1-yl}pyrimidine] | ≤ 1000
12 | CNC(=O)C1CCN(c2nc(-c3ccc(F)c(Cl)c3)cc(N3CCN(c4ncccc4C(F)(F)F)CC3)n2)CC1 [Example 653, 1-(4-(3-chloro-4-fluorophenyl)-6-{4-[3-(trifluoromethyl)pyridin-2-yl]piperazin-1-yl}pyrimidin-2-yl)-N-methylpiperidine-4-carboxamide] | ≤ 1000
13 | O=C1CN(c2nc(-c3ccc(F)c(Cl)c3)cc(N3CCN(c4ncccc4C(F)(F)F)CC3)n2)CCN1 [Example 654, 4-(4-(3-chloro-4-fluorophenyl)-6-{4-[3-(trifluoromethyl)pyridin-2-yl]piperazin-1-yl}pyrimidin-2-yl)piperazin-2-one] | ≤ 1000
14 | Fc1ccc(-c2cc(N3CCN(c4ncccc4C(F)(F)F)CC3)nc(-c3ncc[nH]3)n2)cc1Cl [Example 656, 4-(3-chloro-4-fluorophenyl)-2-(1H-imidazol-2-yl)-6-{4-[3-(trifluoromethyl)pyridin-2-yl]piperazin-1-yl}pyrimidine] | ≤ 1000
15 | CC(=N)N1CCN(c2nc(-c3ccc(F)c(C)c3)cc(N3CCN(c4ncccc4C(F)(F)F)CC3)n2)CC1 [Example 657, 1-[4-(4-(4-fluoro-3-methylphenyl)-6-{4-[3-(trifluoromethyl)pyridin-2-yl]piperazin-1-yl}pyrimidin-2-yl)piperazin-1-yl]ethanimine] | ≤ 1000
16 | CCC(CC)Oc1nc(-c2ccc(F)c(Cl)c2)cc(N2CCN(c3ncccc3C(F)(F)F)CC2)n1 [Example 658, 4-(3-chloro-4-fluorophenyl)-2-(1-ethylpropoxy)-6-{4-[3-(trifluoromethyl)pyridin-2-yl]piperazin-1-yl}pyrimidine] | ≤ 1000
17 | O=C1CN(c2cc(-c3ccc(F)c(Cl)c3)nc(N3CCOCC3)n2)CCN1c1ccccn1 [Example 659, 4-[6-(3-chloro-4-fluorophenyl)-2-morpholin-4-ylpyrimidin-4-yl]-1-pyridin-2-ylpiperazin-2-one] | ≤ 1000
18 | Cc1cccnc1N1CCN(c2cc(-c3ccc(F)c(Cl)c3)nc(N3CCOCC3)n2)CC1=O [Example 661, 4-[6-(3-chloro-4-fluorophenyl)-2-morpholin-4-ylpyrimidin-4-yl]-1-(3-methylpyridin-2-yl)piperazin-2-one] | ≤ 1000
19 | Cn1ccnc1-c1nc(-c2ccc(F)c(Cl)c2)cc(N2CCN(c3ncccc3C(F)(F)F)CC2)n1 [Example 662, 4-(3-chloro-4-fluorophenyl)-2-(1-methyl-1H-imidazol-2-yl)-6-{4-[3-(trifluoromethyl)pyridin-2-yl]piperazin-1-yl}pyrimidine] | ≤ 1000

The remaining lines, values ahead:

Row | IC50 [nM] | SMILES
20 | ≤ 1000 | CCc1nccn1-c1nc(-c2ccc(F)c(Cl)c2)cc(N2CCN(c3ncccc3C(F)(F)F)CC2)n1 [Example 648, 4-(3-chloro-4-fluorophenyl)-2-(2-ethyl-1H-imidazol-1-yl)-6-{4-[3-(trifluoromethyl)pyridin-2-yl]piperazin-1-yl}pyrimidine]
21 | ≤ 1000 | Fc1ccc(-c2cc(N3CCN(c4ncccc4C(F)(F)F)CC3)nc(SCc3ccccc3)n2)cc1Cl [Example 649, 2-(benzylthio)-4-(3-chloro-4-fluorophenyl)-6-{4-[3-(trifluoromethyl)pyridin-2-yl]piperazin-1-yl}pyrimidine]
22 | ≤ 1000 | O=S(=O)(Cc1ccccc1)c1nc(-c2ccc(F)c(Cl)c2)cc(N2CCN(c3ncccc3C(F)(F)F)CC2)n1 [Example 650, 2-(benzylsulfonyl)-4-(3-chloro-4-fluorophenyl)-6-{4-[3-(trifluoromethyl)pyridin-2-yl]piperazin-1-yl}pyrimidine]
23 | ≤ 1000 | CC(C)c1nccn1-c1nc(-c2ccc(F)c(Cl)c2)cc(N2CCN(c3ncccc3C(F)(F)F)CC2)n1 [Example 651, 4-(3-chloro-4-fluorophenyl)-2-(2-isopropyl-1H-imidazo-1-yl)-6-{4-[3-(trifluoromethyl)pyridin-2-yl]piperazin-1-yl}pyrimidine]
24 | ≤ 1000 | CN(C)C(=O)CN1CCN(c2nc(-c3ccc(F)c(Cl)c3)cc(N3CCN(c4ncccc4C(F)(F)F)CC3)n2)CC1 [Example 652, 2-[4-(4-(3-chloro-4-fluorophenyl)-6-{4-[3-(trifluoromethyl)pyridin-2 yl]piperazin-1-yl}pyrimidin-2-yl)piperazin-1-yl]-N,N-dimethylacetamide]
25 | ≤ 1000 | CS(=O)(=O)C1CCN(c2nc(-c3ccc(F)c(Cl)c3)cc(N3CCN(c4ncccc4C(F)(F)F)CC3)n2)CC1 [Example 655, 4-(3-chloro-4-fluorophenyl)-2-[4-(methylsulfonyl)piperidin-1-yl]-6-{4-[3-(trifluoromethyl)pyridin-2-yl]piperazin-1-yl}pyrimidine]
26 | ≤ 1000 | CC(C)N1CC=C(c2nc(-c3ccc(F)c(Cl)c3)cc(N3CCN(c4ncccc4C(F)(F)F)CC3)n2)CC1 [Example 660, 4-(3-chloro-4-fluorophenyl)-2-(1-isopropyl-1,2,3,6-tetrahydropyridin-4-yl)-6-{4-[3-(trifluoromethyl)pyridin-2-yl]piperazin-1-yl}pyrimidine]
27 | ≤ 1000 | CC(=N)N1CCN(c2nc(-c3ccc(F)c(Cl)c3)cc(N3CCN(c4ncccc4C(F)(F)F)CC3)n2)CC1 [Example 663, 1-[4-(4-(3-chloro-4-fluorophenyl)-6-{4-[3-(trifluoromethyl)pyridin-2-yl]piperazin-1-yl}pyrimidin-2-yl)piperazin-1-yl]ethanimine]
28 | ≤ 1000 | Fc1ccc(-c2cc(N3CCN(c4ncccc4C(F)(F)F)CC3)nc(N3CCC[C@H]3CN3CCCC3)n2)cc1Cl [Example 664, 4-(3-chloro-4-fluorophenyl)-2-[(2S)-2-(pyrrolidin-1-ylmethyl)pyrrolidin-1-yl]-6-{4-[3-(trifluoromethyl)pyridin-2-yl]piperazin-1-yl}pyrimidine]
29 | ≤ 1000 | Fc1ccc(-c2cc(N3CCN(c4ncccc4C(F)(F)F)CC3)nc(N3CCC(CCN4CCCC4)CC3)n2)cc1Cl [Example 665, 4-(3-chloro-4-fluorophenyl)-2-[4-(2-pyrrolidin-1-ylethyl)piperidin-1-yl]-6-{4-[3-(trifluoromethyl)pyridin-2-yl]piperazin-1-yl}pyrimidine]
30 | ≤ 1000 | Fc1ccc(-c2cc(N3CCN(c4ncccc4C(F)(F)F)CC3)nc(N3CCC(N4CCCC4)CC3)n2)cc1Cl [Example 666, 4-(3-chloro-4-fluorophenyl)-2-(4-pyrrolidin-1-ylpiperidin-1-yl)-6-{4-[3-(trifluoromethyl)pyridin-2-yl]piperazin-1-yl}pyrimidine]
